Molecular target: T1, PSII core (Nicotiana tabacum, UniProt P06411+P06413+P69556+P69686)
T1 construct: gene psbA; native PSII core complex, sucrose gradient band of alpha-DDM-solubilised thylakoids; some Lhcb contamination
Assay: HPLC and absorption-fit pigment analysis of isolated complex
Assay type: binding
Details: normalised to 37 Chls
From the text: HPLC and absorption-fit pigment analysis of isolated complex on PSII core

## CC1=C(/C=C/C(C)=C/C=C/C(C)=C/C=C/C=C(C)/C=C/C=C(C)/C=C/C2=C(C)C(=O)[C@@H](O)CC2(C)C)C(C)(C)C[C@H](O)C1=O [astaxanthin]
Complex from Asta plants (no beta-carotene), count includes by-products of astaxanthin synthesis
  Asta and its bypass products: 4.12 ± 0.01 molecules per complex

## CC1=C(/C=C/C(C)=C/C=C/C(C)=C/C=C/C=C(C)/C=C/C=C(C)/C=C/C2=C(C)CCCC2(C)C)C(C)(C)CCC1 [β-carotene]
Complex from wild-type plants
  β-caro: 3.93 ± 0.08 molecules per complex

Source: PMC7609050, “Photosynthesis without β-carotene” (eLife, 2020)
